According to patent US7410963B2, “Benzo-1,4-diazepin-2-one derivatives as phosphodiesterase PDE2 inhibitors, preparation and therapeutic use thereof” (VIA Pharmaceuticals, Inc., priority 2003, dated 2008):

target: T1, PDE2 (Bos taurus, UniProt P14099); assay: Radioenzymatic phosphodiesterase assay: PDE2 inhibition; type: biochemical, bovine; conditions: Table 1; 10 μM test compound
T1 sequence (P14099 1-921): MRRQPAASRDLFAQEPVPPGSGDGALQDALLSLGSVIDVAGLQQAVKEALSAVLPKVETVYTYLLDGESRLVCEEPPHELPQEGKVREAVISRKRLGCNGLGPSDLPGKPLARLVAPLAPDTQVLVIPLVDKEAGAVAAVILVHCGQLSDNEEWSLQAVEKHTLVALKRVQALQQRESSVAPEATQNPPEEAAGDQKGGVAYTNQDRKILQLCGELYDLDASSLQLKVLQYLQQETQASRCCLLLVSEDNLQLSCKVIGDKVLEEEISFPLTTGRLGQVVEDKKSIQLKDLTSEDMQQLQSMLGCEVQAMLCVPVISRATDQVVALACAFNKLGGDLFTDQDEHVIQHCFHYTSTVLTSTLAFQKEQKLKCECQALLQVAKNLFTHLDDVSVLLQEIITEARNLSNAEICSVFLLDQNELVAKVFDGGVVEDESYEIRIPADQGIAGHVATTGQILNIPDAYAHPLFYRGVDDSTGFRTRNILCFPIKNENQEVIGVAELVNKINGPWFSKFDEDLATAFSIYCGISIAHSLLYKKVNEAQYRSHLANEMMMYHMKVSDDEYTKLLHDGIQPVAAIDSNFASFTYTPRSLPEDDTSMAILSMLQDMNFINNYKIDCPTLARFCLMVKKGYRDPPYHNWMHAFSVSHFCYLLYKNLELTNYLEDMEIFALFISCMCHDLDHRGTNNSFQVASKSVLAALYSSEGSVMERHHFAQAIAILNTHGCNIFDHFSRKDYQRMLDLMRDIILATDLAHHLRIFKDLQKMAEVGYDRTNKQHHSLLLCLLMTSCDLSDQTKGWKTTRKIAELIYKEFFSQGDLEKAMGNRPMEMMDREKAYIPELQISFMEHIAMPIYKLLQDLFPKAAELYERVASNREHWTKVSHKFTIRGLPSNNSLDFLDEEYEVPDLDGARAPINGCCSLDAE
Description: Nucleoside radioactivity was determined by liquid scintillation.

Row | SMILES | PDE2 percentage of inhibition at 10 μM [%]
1 | COc1cc2c(cc1-c1ccc(C(N)=O)cc1)C(c1cccc(C(N)=O)c1)=NCC(=O)N2 [Example 34, 3-[8-Methoxy-7-(4-benzamide)-2-oxo-2,3-dihydro-1H-benzo[e][1,4]diazepin-5-yl]-benzamide] | 98
2 | COc1ccc(-c2ccc3c(c2)C(c2cccc(C(N)=O)c2)=NCC(=O)N3C)c(OC)c1 [Example 33, 3-[7-(2,4-Dimethoxy-phenyl)-1-methyl-2-oxo-2,3-dihydro-1H-benzo[e][1.4]diazepin-5-yl]-benzamide] | 99

same assay, conditions: Table 1; 10 μM test compound; read-out: PDE2 percentage of inhibition at 10 μM

Row | SMILES | inhibition at 10 µM [%]
3 | COc1ccccc1-c1ccc2c(c1)C(c1cccc(C(N)=O)c1)=NCC(=O)N2C [Example 28, 3-[7-(2-methoxy-phenyl)-1-methyl-2-oxo-2,3-dihydro-1H-benzo[e][1,4]diazepin-5-yl]-benzamide] | 97
4 | COc1cc2c(cc1-c1ccccc1)C(c1ccc(Br)cc1)=NCC(=O)N2C [Example 113, 5-(4-Bromo-phenyl)-8-methoxy-1-methyl-7-phenyl-1,3-dihydro-benzo[e][1,4]diazepin-2-one] | 94
5 | COc1ccc(-c2ccc3c(c2)C(c2cccc(C(N)=O)c2)=NCC(=O)N3C)cc1 [Example 30, 3-[7-(4-methoxy-phenyl)-1-methyl-2-oxo-2,3-dihydro-1H-benzo[e][1,4]diazepin-5-yl]-benzamide] | 95
6 | COc1cccc(C2=NCC(=O)N(C)c3ccc(-c4ccccc4)cc32)c1 [Example 79, 5-(3-Methoxy-phenyl)-1-methyl-7-phenyl-1,3-dihydro-benzo[e][1,4]diazepin-2-one] | 84
7 | COc1ccc(Cl)cc1-c1ccc2c(c1)C(c1cccc(C#N)c1)=NCC(=O)N2C [Example 81, 3-[7-(5-Chloro,2-methoxy-phenyl)-1-methyl-2-oxo-2,3-dihydro-1H-benzo[e][1,4]diazepin-5-yl]-benzonitrile] | 22
8 | COc1cc2c(cc1-c1ccccc1Cl)C(c1cccc(C#N)c1)=NCC(=O)N2C [Example 5, 3-[7-(2-Chloro-phenyl)-8-methoxy-1-methyl-2-oxo-2,3-dihydro-1H-benzo[e][1,4]diazepin-5-yl]-benzonitrile] | 98
9 | COc1cccc(-c2ccc3c(c2)C(c2cccc(C(N)=O)c2)=NCC(=O)N3C)c1 [Example 29, 3-[7-(3-methoxy-phenyl)-1-methyl-2-oxo-2,3-dihydro-1H-benzo[e][1,4]diazepin-5-yl]-benzamide] | 95
10 | Cc1ccc(C2=NCC(=O)N(C)c3ccc(-c4ccccc4)cc32)cc1[N+](=O)[O-] [Example 60, 1-Methyl-5-(4-methyl-3-nitro-phenyl)-7-phenyl-1,3-dihydro-benzo[e][1,4]diazepin-2-one] | 88
11 | COc1cc2c(cc1-c1ccc(F)cc1)C(c1cccc(C(N)=O)c1)=NCC(=O)N2C [Example 20, 3-[7-(4-Fluoro-phenyl)-8-methoxy-1-methyl-2-oxo-2,3-dihydro-1H-benzo[e][1,4]diazepin-5-yl]-benzamide] | 99
12 | CN1C(=O)CN=C(c2cccc(C(N)=O)c2)c2cc(-c3ccccc3)c(OC(F)(F)F)cc21 [Example 87, 3-(1-Methyl-2-oxo-7-phenyl-8-trifluoromethoxy-2,3-dihydro-1H-benzo[e][1,4]diazepin-5-yl)-benzamide] | 93
13 | CN1C(=O)CN=C(c2cccc(C(N)=O)c2)c2cc(-c3ccccc3Oc3ccccc3)ccc21 [Example 91, 3-[1-Methyl-2-oxo-7-(2-phenoxy-phenyl)-2,3-dihydro-1H-benzo[e][1,4]diazepin-5-yl]-benzamide] | 96
14 | CN1C(=O)CN=C(c2ccc(Cl)cc2)c2cc(-c3ccccc3)ccc21 [Example 42, 5-(4-Chloro-phenyl)-1-methyl-7-phenyl-1,3-dihydro-benzo[e][1,4]diazepin-2-one] | 1

same assay, conditions: read-out: PDE2 percentage of inhibition at 10 μM

Row | SMILES | inhibition at 10 µM [%]
15 | COc1cc2c(cc1-c1ccccc1)C(c1ccc(C#CCNC(=O)OC(C)(C)C)cc1)=NCC(=O)N2C [Example 96, {3-[4-(8-Methoxy-1-methyl-2-oxo-7-phenyl-2,3-dihydro-1H-benzo[e][1,4]diazepin-5-yl)-phenyl]-prop-2-ynyl}-carbamic acid tert-butyl ester] | 21
16 | COc1cc2c(cc1-c1ccccc1OC(C)C)C(c1cccc(C#N)c1)=NCC(=O)N2C [Example 63, 3-[7-(2-isopropoxy-phenyl)-8-methoxy-1-methyl-2-oxo-2,3-dihydro-1H-benzo[e][1,4]diazepin-5-yl]-benzonitrile] | 98
17 | CCCCCCN1C(=O)CN=C(c2cccc(C(N)=O)c2)c2cc(-c3ccccc3OC)c(OC)cc21 [Example 47, 3-[1-Hexyl-8-methoxy-7-(2-methoxy-phenyl)-2-oxo-2,3-dihydro-1H-benzo[e][1,4]diazepin-5-yl]-benzamide] | 59
18 | COc1ccc(-c2ccc3c(c2)C(c2cccc(C#N)c2)=NCC(=O)N3C)cc1OC [Example 53, 3-[7-(3,4-Dimethoxy-phenyl)-1-methyl-2-oxo-2,3-dihydro-1H-benzo[e][1,4]diazepin-5-yl]-benzonitrile] | 95
19 | CCCN1C(=O)CN=C(c2cccc(C#N)c2)c2cc(-c3ccccc3OC)c(OC)cc21 [Example 37, 3-[8-Methoxy-7-(2-methoxy-phenyl)-2-oxo-1-propyl-2,3-dihydro-1H-benzo[e][1,4]diazepin-5-yl]-benzonitrile] | 45
20 | COc1cc2c(cc1-c1ccccc1)C(c1ccc(C#Cc3ccccc3)cc1)=NCC(=O)N2C [Example 97, 8-Methoxy-1-methyl-7-phenyl-5-(4-phenylethynyl-phenyl)-1,3-dihydro-benzo[e][1,4]diazepin-2-one] | 45
21 | COc1ccc(-c2ccc3c(c2)C(c2cccc(C#N)c2)=NCC(=O)N3C)c(OC)c1 [Example 17, 3-[7-(2,4-Dimethoxy-phenyl)-1-methyl-2-oxo-2,3-dihydro-1H-benzo[e][1,4]diazepin-5-yl]-benzonitrile] | 98
22 | CN1C(=O)CN=C(c2cccc(C#N)c2)c2cc(-c3ccccc3)ccc21 [Example 11, 3-(1-Methyl-2-oxo-7-phenyl-2,3-dihydro-1H-benzo[e][1,4]diazepin-5-yl)-benzonitrile] | 79
23 | CN1C(=O)CN=C(c2cccc(C#N)c2)c2cc(-c3ccccc3)c(Oc3ccccc3)cc21 [Example 69, 3-(1-Methyl-2-oxo-8-phenoxy-7-phenyl-2,3-dihydro-1H-benzo[e][1,4]diazepin-5-yl)-benzonitrile] | 4
24 | COCCCc1ccc(C2=NCC(=O)N(C)c3cc(OC)c(-c4ccccc4)cc32)cc1 [Example 106, 8-Methoxy-5-[4-(3-methoxy-propyl)-phenyl]-1-methyl-7-phenyl-1,3-dihydro-benzo[e][1,4]diazepin-2-one] | 47
25 | CN1C(=O)CN=C(c2cccc(C#N)c2)c2cc(-c3ccccc3)c(OC(F)(F)F)cc21 [Example 86, 3-(1-Methyl-2-oxo-7-phenyl-8-trifluoromethoxy-2,3-dihydro-1H-benzo[e][1,4]diazepin-5-yl)-benzonitrile] | 85
26 | COc1cc2c(cc1-c1ccccc1)C(c1cccc(CCCCc3ccccc3)c1)=NCC(=O)N2C [Example 94, 8-Methoxy-1-methyl-7-phenyl-5-[3-(4-phenyl-butyl)-phenyl]-1,3-dihydro-benzo[e][1,4]diazepin-2-one] | 79
27 | CCCCC#Cc1ccc(C2=NCC(=O)N(C)c3cc(OC)c(-c4ccccc4)cc32)cc1 [Example 105, 5-(4-Hex-1-ynyl-phenyl)-8-methoxy-1-methyl-7-phenyl-1,3-dihydro-benzo[e][1,4]diazepin-2-one] | 42
28 | COc1ccccc1-c1cc2c(cc1OC)N(CCc1ccccc1)C(=O)CN=C2c1cccc(C(N)=O)c1 [Example 46, 3-[8-Methoxy-7-(2-methoxy-phenyl)-2-oxo-1-phenethyl-2,3-dihydro-1H-benzo[e][1,4]diazepin-5-yl]-benzamide] | 78
29 | CN1C(=O)CN=C(c2cccc(C#N)c2)c2cc(-c3ccccc3Cl)c(Oc3ccccc3)cc21 [Example 71, 3-[7-(2-Chloro-phenyl)-1-methyl-2-oxo-8-phenoxy-2,3-dihydro-1H-benzo[e][1,4]diazepin-5-yl]-benzonitrile] | 82
30 | COc1ccc(C2=NCC(=O)N(C)c3cc(OC)c(-c4ccccc4OC)cc32)cc1 [Example 108, 8-Methoxy-5-(4-methoxy-phenyl)-7-(2-methoxy-phenyl)-1-methyl-1,3-dihydro-benzo[e][1,4]diazepin-2-one] | 99
31 | CN1C(=O)CN=C(c2cccc(C(N)=O)c2)c2cc(-c3ccccc3)ccc21 [Example 27, 3-(1-methyl-2-oxo-7-phenyl-2,3-dihydro-1H-benzo[e][1,4]diazepin-5-yl)-benzamide] | 96
